According to patent US6355799B1, “Substituted benzene compounds, process for their preparation, and herbicidal and defoliant compositions containing them” (ISK Americas Incorporated, priority 1997, dated 2002):

What was measured:
Assay type in all cases: in vivo
[1] = system: redroot pigweed (Amaranthus retroflexus, AMARE); experiment: Pre-emerge test, greenhouse herbicide activity screening; conditions: rated 14 days after application, 0 = no damage, 100 = complete death
In short: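 Compounds in acetone were track-sprayed at 15-1000 g ai/ha (187 l/ha) on sandy loam pots: pre-emerge one day after seeding, post-emerge at 2-3 leaf stage with 0.25% v/v non-ionic surfactant. Phytotoxicity was rated 14 days later on a 0 (no damage) to 100 (complete death) scale.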

[2] = system: field corn (Zea mays L., var. Dekalb 535, CORN); experiment: Post-emerge test, crop safety; conditions: post-emerge, 14 days after application, rating scale 0-100
In short: (§1)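 Plants grown in 10 cm pots of sandy loam mix received acetone-dissolved compounds through a moving flat-fan nozzle. Doses ranged from 15 to 1000 g ai/ha. Pre-emerge pots were seeded one day earlier, post-emerge pots 8–21 days earlier. Fourteen days on, each pot was graded 0–100 for damage.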

[3] = system: upland rice (Oryza sp., var. Tebonnet, RICE); experiment: Post-emerge test, crop safety; conditions: post-emerge, 14 days after application, rating scale 0-100
In short: as §1

[4] = system: field corn (Zea mays L., var. Dekalb 535, CORN); experiment: Pre-emerge test, crop safety; conditions: rated 14 days after application, 0 = no damage, 100 = complete death
In short: (§2)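 Applied at 15–1000 g ai/ha from acetone in 187 l/ha spray volume. Post-emergence applications included 0.25% v/v non-ionic surfactant and reached plants sown 8–21 days before. Pre-emergence applications were incorporated by surface watering. Efficacy or crop damage was rated on a 0–100 scale after 14 days.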

[5] = system: upland rice (Oryza sp., var. Tebonnet, RICE); experiment: Pre-emerge test, crop safety; conditions: rated 14 days after application, 0 = no damage, 100 = complete death
In short: as §2

[6] = system: ivyleaf morningglory (Ipomoea hederacea, IPOHE); experiment: Pre-emerge test, greenhouse herbicide activity screening; conditions: rated 14 days after application, 0 = no damage, 100 = complete death
In short: (§3)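 Rating: 0–100 visual injury, 14 DAA. Application: acetone, 187 l/ha, 15–1000 g ai/ha, flat-fan track sprayer with nozzle 40–45 cm above soil or canopy. Post-emerge runs used 0.25% v/v surfactant on 2–3 leaf plants.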

[7] = system: velvetleaf (Abutilon theophrasti, ABUTH); experiment: as above; conditions: rated 14 days after application, 0 = no damage, 100 = complete death
In short: as §3

[8] = system: green foxtail (Setaria viridis, SETVI); experiment: as above; conditions: rated 14 days after application, 0 = no damage, 100 = complete death
In short: as §3

[9] = system: johnsongrass (Sorghum halepense, SORHA); experiment: as above; conditions: rated 14 days after application, 0 = no damage, 100 = complete death
In short: as §3

[10] = system: barnyardgrass (Echinochloa crus-galli, ECHCG); experiment: as above; conditions: rated 14 days after application, 0 = no damage, 100 = complete death
In short: as §3

[11] = system: sicklepod (Cassia obtusifolia, CASOB); experiment: as above; conditions: rated 14 days after application, 0 = no damage, 100 = complete death
In short: as §3

[12] = system: lambsquarters (Chenopodium album, CHEAL); experiment: as above; conditions: rated 14 days after application, 0 = no damage, 100 = complete death
In short: as §3

[13] = system: large crabgrass (Digitaria sanguinalis, DIGSA); experiment: as above; conditions: rated 14 days after application, 0 = no damage, 100 = complete death
In short: as §3

[14] = system: ivyleaf morningglory (Ipomoea hederacea, IPOHE); experiment: Post-emerge test, greenhouse herbicide activity screening; conditions: post-emerge, 14 days after application, rating scale 0-100
In short: (§4)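 Herbicidal damage is scored 0 (none) to 100 (complete plant death) two weeks after a simulated field spray. Rates span 15–1000 g ai/ha, delivered in acetone at 187 l/ha. For post-emergence treatments, plants have 2–3 leaves and the spray carries 0.25% v/v non-ionic surfactant.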

[15] = system: velvetleaf (Abutilon theophrasti, ABUTH); experiment: as above; conditions: post-emerge, 14 days after application, rating scale 0-100
In short: as §4

[16] = system: green foxtail (Setaria viridis, SETVI); experiment: as above; conditions: post-emerge, 14 days after application, rating scale 0-100
In short: as §4

[17] = system: johnsongrass (Sorghum halepense, SORHA); experiment: as above; conditions: post-emerge, 14 days after application, rating scale 0-100
In short: as §4

[18] = system: redroot pigweed (Amaranthus retroflexus, AMARE); experiment: as above; conditions: post-emerge, 14 days after application, rating scale 0-100
In short: as §4

[19] = system: barnyardgrass (Echinochloa crus-galli, ECHCG); experiment: as above; conditions: post-emerge, 14 days after application, rating scale 0-100
In short: as §4

[20] = system: sicklepod (Cassia obtusifolia, CASOB); experiment: as above; conditions: post-emerge, 14 days after application, rating scale 0-100
In short: as §4

[21] = system: lambsquarters (Chenopodium album, CHEAL); experiment: as above; conditions: post-emerge, 14 days after application, rating scale 0-100
In short: as §4

[22] = system: large crabgrass (Digitaria sanguinalis, DIGSA); experiment: as above; conditions: post-emerge, 14 days after application, rating scale 0-100
In short: as §4

For `Cn1c(C(F)(F)F)cc(=O)n(-c2c(F)cc(Cl)c(O)c2NC(=O)c2ncccn2)c1=O` [2-102], the “Pre-emerge Herbicidal Activity, phytotoxicity rating (0-100), AMARE” value ([1]; 63 g ai/ha) was 30, the “Pre-emerge Herbicidal Activity, phytotoxicity rating (0-100), AMARE” value ([1]; 250 g ai/ha) was 0 and the “phytotoxicity rating CORN” value ([2]; 63 g ai/ha) was 0. For the same compound, the “phytotoxicity rating CORN” value ([2]; 250 g ai/ha) was 0, the “phytotoxicity rating RICE” value ([3]; 63 g ai/ha) was 0 and the “phytotoxicity rating RICE” value ([3]; 250 g ai/ha) was 0. The “Pre-emerge phytotoxicity rating (0-100), crop damage, CORN” value ([4]; 63 g ai/ha) was 0, the “Pre-emerge phytotoxicity rating (0-100), crop damage, CORN” value ([4]; 250 g ai/ha) was 0 and the “Pre-emerge phytotoxicity rating (0-100), crop damage, RICE” value ([5]; 63 g ai/ha) was 0. The “Pre-emerge phytotoxicity rating (0-100), crop damage, RICE” value ([5]; 250 g ai/ha) was 0, the “Pre-emerge Herbicidal Activity, phytotoxicity rating (0-100), IPOHE” value ([6]; 63 g ai/ha) was 0 and the “Pre-emerge Herbicidal Activity, phytotoxicity rating (0-100), IPOHE” value ([6]; 250 g ai/ha) was 0. The “Pre-emerge Herbicidal Activity, phytotoxicity rating (0-100), ABUTH” value ([7]; 63 g ai/ha) was 0, the “Pre-emerge Herbicidal Activity, phytotoxicity rating (0-100), ABUTH” value ([7]; 250 g ai/ha) was 0 and the “Pre-emerge Herbicidal Activity, phytotoxicity rating (0-100), SETVI” value ([8]; 63 g ai/ha) was 0. For the same compound, the “Pre-emerge Herbicidal Activity, phytotoxicity rating (0-100), SETVI” value ([8]; 250 g ai/ha) was 0, the “Pre-emerge Herbicidal Activity, phytotoxicity rating (0-100), SORHA” value ([9]; 63 g ai/ha) was 0 and the “Pre-emerge Herbicidal Activity, phytotoxicity rating (0-100), SORHA” value ([9]; 250 g ai/ha) was 0. For the same compound, the “Pre-emerge Herbicidal Activity, phytotoxicity rating (0-100), ECHCG” value ([10]; 63 g ai/ha) was 0, the “Pre-emerge Herbicidal Activity, phytotoxicity rating (0-100), ECHCG” value ([10]; 250 g ai/ha) was 0 and the “Pre-emerge Herbicidal Activity, phytotoxicity rating (0-100), CASOB” value ([11]; 63 g ai/ha) was 0. For the same compound, the “Pre-emerge Herbicidal Activity, phytotoxicity rating (0-100), CASOB” value ([11]; 250 g ai/ha) was 0, the “Pre-emerge Herbicidal Activity, phytotoxicity rating (0-100), CHEAL” value ([12]; 63 g ai/ha) was 0 and the “Pre-emerge Herbicidal Activity, phytotoxicity rating (0-100), CHEAL” value ([12]; 250 g ai/ha) was 0. The “Pre-emerge Herbicidal Activity, phytotoxicity rating (0-100), DIGSA” value ([13]; 63 g ai/ha) was 0, the “Pre-emerge Herbicidal Activity, phytotoxicity rating (0-100), DIGSA” value ([13]; 250 g ai/ha) was 0 and the “phytotoxicity rating IPOHE” value ([14]; 63 g ai/ha) was 0. The “phytotoxicity rating IPOHE” value ([14]; 250 g ai/ha) was 0, the “phytotoxicity rating ABUTH” value ([15]; 63 g ai/ha) was 0 and the “phytotoxicity rating ABUTH” value ([15]; 250 g ai/ha) was 30. For the same compound, the “phytotoxicity rating SETVI” value ([16]; 63 g ai/ha) was 0, the “phytotoxicity rating SETVI” value ([16]; 250 g ai/ha) was 0 and the “phytotoxicity rating SORHA” value ([17]; 63 g ai/ha) was 0. For the same compound, the “phytotoxicity rating SORHA” value ([17]; 250 g ai/ha) was 0, the “phytotoxicity rating AMARE” value ([18]; 63 g ai/ha) was 0 and the “phytotoxicity rating AMARE” value ([18]; 250 g ai/ha) was 40. The “phytotoxicity rating ECHCG” value ([19]; 63 g ai/ha) was 0, the “phytotoxicity rating ECHCG” value ([19]; 250 g ai/ha) was 0 and the “phytotoxicity rating CASOB” value ([20]; 63 g ai/ha) was 0. The “phytotoxicity rating CASOB” value ([20]; 250 g ai/ha) was 0, the “phytotoxicity rating CHEAL” value ([21]; 63 g ai/ha) was 0 and the “phytotoxicity rating CHEAL” value ([21]; 250 g ai/ha) was 0. For the same compound, the “phytotoxicity rating DIGSA” value ([22]; 63 g ai/ha) was 0 and the “phytotoxicity rating DIGSA” value ([22]; 250 g ai/ha) was 0.
